Experimental data published in patent publication US20040077624A1, “Novel combination” (Pfizer Inc., priority 2002, published 2004).

Test system: spontaneously hypertensive rat (SHR)
Assay: Animal study: haemodynamic parameters in spontaneously hypertensive rats under continuous infusion
Format: in vivo
Conditions: male SHR; continuous infusion 0.4 mL/h over 4 days; enalapril 7.5 μg/mL, PDE5 inhibitor 200 μg/mL; difference from the vehicle response
Description: The spontaneously hypertensive rat (SHR) is a widely used model of human hypertension. Male SHRs (20-22 weeks old) were instrumented with Doppler flow probes for the measurement of mesenteric, hindquarters and renal blood flow, aortic blood pressure and heart rate according to published methods (Gardiner, S M et al.; Br. J. Pharmacol. 132(8), 1625-1629, 2001).
Solutions of enalapril (7.5 μg/mL), PDE5 inhibitor (200μg/mL) and a combination of enalapril and PDE5 inhibitor (7.5μg/mL+200 μg/mL) were infused at a rate of 0.4 mL/h throughout the experimental period. Control animals received compound vehicle; isotonic saline adjusted to pH 4 with hydrochloric acid.
Baseline haemodynamic parameters were recorded. Animals (n=7 or 8/group) were randomised then treated with the drug solution by continuous infusion over 4 days. Changes in haemodynamic parameters were monitored during the study period for 7h on each day.

Structure (SMILES)	Change in aortic conductance	Change in mesenteric conductance	Change in renal conductance	Overall change in mean BP [mmHg]
CCc1c2nc(-c3cc(S(=O)(=O)N4CCN(CC)CC4)cnc3OCCOC)[nH]c(=O)c2nn1Cc1ccccn1 [PDE5 inhibitor, 3-ethyl-5-[5-(4-ethylpiperazin-1-ylsulphonyl)-2-(2-methoxyethoxy)pyridin-3-yl]-2-(pyridin-2-yl)methyl-2,6-dihydro-7H-pyrazolo[4,3-d]pyrimidin-7-one]	+19.8%	+22.1%	−0.8%	−12.1
CCOC(=O)[C@H](CCc1ccccc1)N[C@@H](C)C(=O)N1CCC[C@H]1C(=O)O [Enalapril, enalapril]	+3.7%	+22.4%	+14.2%	−2.4
